Results reported in PMC5656322, “BAK1 is involved in AtRALF1-induced inhibition of root cell expansion” (PLoS Genetics, 2017).
Where no end group is shown, it is not given here.

How the values were obtained:
[1] = test system: Arabidopsis seedlings, primary root; conditions: ref [10], cited from earlier work
Text: FERONIA (FER), a receptor-like kinase with an extracellular malectin-like domain, has been identified as the receptor of the root-specific isoform AtRALF1 [10]. LORELEI (LRE) and LRE-like GPI-AP1 (LLG1) are two glycosylphosphatidylinositol-anchored proteins found in ovules and vegetative tissues, respectively, that physically interact with FER and are required for FER delivery to the cell membrane and FER signaling. […] In a search for putative genetic components that might be shared by both the AtRALF1 and BR signaling pathways, we tested mutants lacking different components of the BR signaling pathway in root growth assays with inhibitory concentrations of the AtRALF1 peptide. […] A previous study in which 18 receptor-like proteins were tested in root g ...

BAK1 gene [2] = experiment: BAK1 gene expression in roots (semi-quantitative RT-PCR and qRT-PCR); format: in vivo, Arabidopsis thaliana; conditions: 1 μM, 1 h, Arabidopsis seedlings
Protocol: Arabidopsis plants were grown for 10 days in vertical plates and then treated in liquid medium containing 1 μM AtRALF1 for 1 h at room temperature. Control plants were incubated under identical conditions in a peptide-free medium. The total RNA was isolated from the roots of Arabidopsis plants using TRIzol reagent according to the manufacturer’s instructions (Life Technologies). The cDNA was synthesized using the ImProm-II Reverse Transcription System (Promega) and 1 μg of RNA. An aliquot of cDNA (1.5 μl) was used as the template in the PCR reaction, which was performed for 29 cycles, unless indicated otherwise, using gene-specific primers (S1 Table). The glyceraldehyde 3-phosphate dehydrogenase (GAPDH) gene was used as an internal control. All experiments were repeated at least three times with independent biological replicates. The data shown are from one representative experiment.
The qRT-PCR analysis was performed using 10-fold-diluted cDNA, Maxima SYBR Green Rox/qPCR Master Mix (Thermo Scientific) and a StepOne Real-Time PCR System (Applied Biosystems). The glyceraldehyde 3-phosphate dehydrogenase (GAPDH) gene was used as an internal control. […] The threshold cycle (CT) was determined by the instrument, and the ΔΔCT method was used to calculate the fold change in each gene. […] Three replicates were analyzed for each biological sample, and two biological samples were analyzed. […]

BAK1 gene [3] = conditions: Arabidopsis plants; ref [10]; cited from earlier work
Text: It has been previously shown through microarray experiments that the treatment of Arabidopsis plants with AtRALF1 causes BAK1 gene induction by approximately 1.56-fold. Our data are consistent with that previous observation and add a new gene to the list of AtRALF1-inducible genes. […] The fact that AtRALF1 peptide and BL treatment both induce BAK1 gene expression provides further evidence that BAK1 ...

[4] = test system: Arabidopsis seedlings, primary root; conditions: wild-type Arabidopsis; ref [5]; cited from earlier work
Protocol: To better understand the role of AtRALF1 and BRs in regulating cell expansion, we exposed different mutants and transgenic Arabidopsis plants with altered BR signaling pathways to the peptide hormone AtRALF1 at concentrations that inhibit root growth. Loss-of-function mutants (bri1-301, bsk3-2 and bak1-4), gain-of-function mutants (sud1, bes1-D and bzr1-D) and two overexpressor lines (BRI OX and DWF4 OX) were used in the root growth assays in the presence or absence of 10 μM AtRALF1 (Fig 1A).

cell suspensions = conditions: cited from earlier work

## AtRALF1: root-specific RALF isoform in Arabidopsis; recombinant peptide hormone produced in E. coli (ATTKYISYQSLKRNSVPCSRRGASYYNCQNGAQANPYSRGCSKIARCRS; ends and bridges not checked; cysteine pairing not given here)
[1]; FERONIA mutant fer4, low concentrations
  root growth inhibition, sensitivity of fer4: insensitive to low concentrations of the AtRALF1 peptide
[1]; bak1-4 mutant, 1 μM
  root growth inhibition: the roots of the bak1-4 mutant were inhibited by the peptide
BAK1 gene [2]
  BAK1 gene expression in roots: induced BAK1 gene expression in the roots up to levels found in untreated p35S:AtRALF1 roots
BAK1 gene [3]
  BAK1 gene induction (microarray): approximately 1.56 -fold
[4]
  primary root growth inhibition: inhibits the primary root growth of wild-type Arabidopsis plants
Cell suspensions; ref [1],[11]
  alkalinization of the extracellular media: induces a rapid alkalinization of the extracellular media of cell suspensions
Cell suspensions; ref [5]
  alkalinization of the extracellular medium: alkalinizes the extracellular medium of cell suspensions
